Source: the NIST ThermoML archive (doi:10.1016/j.jct.2005.06.011)

Key:
[1] = xn = mol fraction of the nth substance listed; settings: 101 kPa, Liquid; for speed of sound: Linear variable-path acoustic interferometer
[2] = refractive index (Na D-line) (dimensionless); xn = mol fraction of the nth substance listed; settings: 101 kPa, Liquid

CC1CCCCC1 [methylcyclohexane] + CC(C)O
Settings | mass density, 298.15 K [kg/m3] | mass density, 303.15 K [kg/m3] | mass density, 308.15 K [kg/m3] | refractive index, 298.15 K | refractive index, 303.15 K | refractive index, 308.15 K | speed of sound, 298.15 K [m/s] | viscosity, 298.15 K [mPa·s] | viscosity, 303.15 K [mPa·s] | viscosity, 308.15 K [mPa·s]
[1], x1 = 0.1001 | 777.28 | 772.86 | 768.43 | – | – | – | 1151 | 1.634 | 1.441 | 1.248
[1], x1 = 0.2033 | 774.39 | 769.88 | 765.38 | – | – | – | 1159 | 1.35 | 1.197 | 1.044
[1], x1 = 0.3065 | 771.5 | 766.95 | 762.32 | – | – | – | 1166 | 1.117 | 1.004 | 0.8905
[1], x1 = 0.4049 | 769.55 | 764.95 | 760.33 | – | – | – | 1173 | 0.9645 | 0.8716 | 0.7785
[1], x1 = 0.5034 | 767.6 | 763.01 | 758.34 | – | – | – | 1181 | 0.8434 | 0.7708 | 0.698
[1], x1 = 0.6022 | 766.22 | 761.62 | 757 | – | – | – | 1188 | 0.7815 | 0.7193 | 0.6573
[1], x1 = 0.7009 | 765.17 | 760.61 | 756 | – | – | – | 1195 | 0.7197 | 0.6681 | 0.6167
[1], x1 = 0.8021 | 764.75 | 760.25 | 755.69 | – | – | – | 1203 | 0.703 | 0.6546 | 0.6061
[1], x1 = 0.9032 | 764.43 | 759.88 | 755.37 | – | – | – | 1210 | 0.6864 | 0.641 | 0.5955
[1], x1 = 1 | 764.99 | 760.66 | 756.3 | – | – | – | 1217 | 0.6757 | 0.631 | 0.5902
[2], x1 = 0.1001 | – | – | – | 1.3822 | 1.3798 | 1.3775 | – | – | – | –
[2], x1 = 0.2033 | – | – | – | 1.3879 | 1.3854 | 1.3829 | – | – | – | –
[2], x1 = 0.3065 | – | – | – | 1.3936 | 1.3909 | 1.3883 | – | – | – | –
[2], x1 = 0.4049 | – | – | – | 1.3983 | 1.3956 | 1.3928 | – | – | – | –
[2], x1 = 0.5034 | – | – | – | 1.4029 | 1.4001 | 1.3973 | – | – | – | –
[2], x1 = 0.6022 | – | – | – | 1.4068 | 1.404 | 1.4013 | – | – | – | –
[2], x1 = 0.7009 | – | – | – | 1.4106 | 1.408 | 1.4053 | – | – | – | –
[2], x1 = 0.8021 | – | – | – | 1.4145 | 1.4118 | 1.4092 | – | – | – | –
[2], x1 = 0.9032 | – | – | – | 1.4184 | 1.4158 | 1.413 | – | – | – | –
[2], x1 = 1 | – | – | – | 1.4217 | 1.4192 | 1.4163 | – | – | – | –

CC1CCCCC1 [methylcyclohexane] + CCCCO
Settings | mass density, 298.15 K [kg/m3] | mass density, 303.15 K [kg/m3] | mass density, 308.15 K [kg/m3] | refractive index, 298.15 K | refractive index, 303.15 K | refractive index, 308.15 K | speed of sound, 298.15 K [m/s] | viscosity, 298.15 K [mPa·s] | viscosity, 303.15 K [mPa·s] | viscosity, 308.15 K [mPa·s]
[1], x1 = 0.1021 | 801.93 | 797.96 | 793.95 | – | – | – | 1263 | 2.396 | 2.122 | 1.848
[1], x1 = 0.2041 | 795.62 | 791.47 | 787.32 | – | – | – | 1258 | 2.205 | 1.957 | 1.709
[1], x1 = 0.3027 | 790.23 | 786.03 | 781.87 | – | – | – | 1253 | 2.021 | 1.797 | 1.573
[1], x1 = 0.4013 | 785.45 | 781.24 | 776.99 | – | – | – | 1248 | 1.834 | 1.636 | 1.438
[1], x1 = 0.5039 | 780.86 | 776.57 | 772.29 | – | – | – | 1243 | 1.639 | 1.468 | 1.296
[1], x1 = 0.6066 | 776.73 | 772.4 | 768.04 | – | – | – | 1238 | 1.443 | 1.288 | 1.153
[1], x1 = 0.7014 | 773.21 | 768.83 | 764.46 | – | – | – | 1233 | 1.262 | 1.141 | 1.021
[1], x1 = 0.7963 | 770.14 | 765.74 | 761.34 | – | – | – | 1227 | 1.08 | 0.9828 | 0.8858
[1], x1 = 0.8981 | 767.52 | 763.15 | 758.77 | – | – | – | 1222 | 0.8808 | 0.8104 | 0.74
[1], x1 = 1 | 764.99 | 760.66 | 756.3 | – | – | – | 1217 | 0.6757 | 0.631 | 0.5902
[2], x1 = 0.1021 | – | – | – | 1.4036 | 1.4015 | 1.3994 | – | – | – | –
[2], x1 = 0.2041 | – | – | – | 1.4034 | 1.4008 | 1.3982 | – | – | – | –
[2], x1 = 0.3027 | – | – | – | 1.406 | 1.4035 | 1.4009 | – | – | – | –
[2], x1 = 0.4013 | – | – | – | 1.4087 | 1.4062 | 1.4037 | – | – | – | –
[2], x1 = 0.5039 | – | – | – | 1.4105 | 1.4081 | 1.4057 | – | – | – | –
[2], x1 = 0.6066 | – | – | – | 1.4121 | 1.4099 | 1.4076 | – | – | – | –
[2], x1 = 0.7014 | – | – | – | 1.4147 | 1.4122 | 1.4097 | – | – | – | –
[2], x1 = 0.7963 | – | – | – | 1.4169 | 1.4143 | 1.4117 | – | – | – | –
[2], x1 = 0.8981 | – | – | – | 1.4193 | 1.4167 | 1.414 | – | – | – | –
[2], x1 = 1 | – | – | – | 1.4217 | 1.4192 | 1.4163 | – | – | – | –
